This is an account of results in patent US11795177B2, “Substituted quinoline analogs as aldehyde dehydrogenase 1A1 (ALDH1A1) inhibitors” (THE UNITED STATES OF AMERICA, AS REPRESENTED BY THE …, priority 2017, dated 2023).

One test deals with T1, ALDH1A1 enzyme (Homo sapiens, UniProt P00352).
T1 sequence (P00352 1-501): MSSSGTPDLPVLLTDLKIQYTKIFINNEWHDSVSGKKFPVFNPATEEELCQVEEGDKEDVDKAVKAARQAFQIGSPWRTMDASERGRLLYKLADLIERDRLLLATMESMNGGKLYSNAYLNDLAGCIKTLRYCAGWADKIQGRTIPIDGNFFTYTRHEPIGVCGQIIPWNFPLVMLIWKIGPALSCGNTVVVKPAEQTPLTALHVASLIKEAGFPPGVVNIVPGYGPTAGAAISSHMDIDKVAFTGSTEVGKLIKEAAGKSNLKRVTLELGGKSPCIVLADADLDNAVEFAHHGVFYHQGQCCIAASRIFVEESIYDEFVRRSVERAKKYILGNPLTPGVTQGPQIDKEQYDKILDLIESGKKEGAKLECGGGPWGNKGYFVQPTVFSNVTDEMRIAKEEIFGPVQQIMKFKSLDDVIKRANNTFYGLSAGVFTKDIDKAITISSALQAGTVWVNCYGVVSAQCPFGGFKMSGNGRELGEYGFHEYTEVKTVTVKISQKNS
Put plainly: ALDH1A1 enzymatic assay (in vitro). It counts as biochemical. The note with it: ALDH1A1 enzyme 20 nM, NAD+ 1 mM, propionaldehyde 80 μM; read-out: ALDH1A1 IC50. Summed up:
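ALDH1A1 (20 nM final) in 100 mM HEPES pH 7.5, 0.01% Tween 20 was preincubated 15 min at RT with compound (968 pM–57.2 μM final), then started with 1 mM NAD+ and 80 μM propionaldehyde. NADH fluorescence (ex 340/em 450 nm) followed kinetically for 10 min; change normalized to no-inhibitor and no-enzyme controls for percent inhibition and curve fitting.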

The subject of another test is MIA PaCa-2 cells. Put plainly: MIA PaCa2 cell-based assay (1,536-well high-content imaging ALDEFLUOR assay). More on the design: species or system human. The note with it: Homo sapiens, 0.5 h, ALDEFLUOR BAAA substrate 500 nM, 30 minutes. Summed up: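 High-content ALDEFLUOR imaging readout: BAA-retaining cells in FITC channel scored against Hoechst-counted nuclei. Before imaging, MIA PaCa-2 cells seeded at 1,000 per well received final 500 nM BAAA and 0.5 nM Hoechst with compounds in 16-point series (1.4 nM to 47.8 μM), 30 min, 37° C.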

Molecules are shown by their SMILES.

What is called IC50 is the concentration that inhibits the measured activity by half. Regarding `CCN(CC)C(=O)N1CCN(C(=O)c2cnc3cc(F)c(F)cc3c2N2CCC3(CC2)OCCO3)CC1` [Example 169, 4-(6,7-difluoro-4-(1,4-dioxa-8-azasprio[4.5]decan-8-yl)quinoline-3-carbonyl)-N,N-diethylpiperazine-1-carboxamide], the IC50 was < 0.5 µM at ALDH1A1 enzyme and 1 to 10 µM with MIA PaCa-2 cells.

For `O=C(c1cnc2cc(F)c(F)cc2c1N1CCC2(CC1)OCCO2)N1CCN(C(=O)N2CCCC2)CC1` [Example 170, (6,7-difluoro-4-(1,4-dioxa-8-azaspiro[4.5]decan-8-yl)quinolin-3-yl)(4-(pyrrolidine-1-carbonyl)piperazin-1-yl)methanone], the IC50 at ALDH1A1 enzyme was < 0.5 µM; in the test with MIA PaCa-2 cells, 1 to 10 µM.

Regarding `CCS(=O)(=O)N1CCN(C(=O)c2cnc3cc(F)c(F)cc3c2N2CCC3(CC2)OCCO3)CC1` [Example 171, (6,7-difluoro-4-(1,4-dioxa-8-azaspiro[4.5]decan-8-yl)quinolin-3-yl)(4-(ethylsulfonyl)piperazin-1-yl)methanone], the half-maximal inhibitory concentration (IC50) on ALDH1A1 enzyme is < 0.5 µM; in the test with MIA PaCa-2 cells it was 1 to 10 µM.

`CN(C)S(=O)(=O)N1CCN(C(=O)c2cnc3cc(F)c(F)cc3c2N2CCC3(CC2)OCCO3)CC1` [Example 172, 4-(6,7-difluoro-4-(1,4-dioxa-8-azaspiro[4.5]decan-8-yl)quinoline-3-carbonyl)-N,N-dimethylpiperazine-1-sulfonamide]: the IC50 on ALDH1A1 enzyme is < 0.5 µM; with MIA PaCa-2 cells it was 0.5 to 1 µM.

On to `O=C(c1cnc2cc(F)c(F)cc2c1N1CCC2(CC1)OCCO2)N1CCN(S(=O)(=O)N2CCCC2)CC1` [Example 173, (6,7-difluoro-4-(1,4-dioxa-8-azaspiro[4.5]decan-8-yl)quinolin-3-yl)(4-(pyrrolidin-1-ylsulfonyl)piperazin-1-yl)methanone], for which the IC50 at ALDH1A1 enzyme was < 0.5 µM; in the test on MIA PaCa-2 cells, > 10 µM.

For `CCN(CC)C(=O)N1CCN(C(=O)c2cnc3cc(F)c(F)cc3c2N2CCC(C)(C#N)CC2)CC1` [Example 174, 4-(4-(4-cyano-4-methylpiperidin-1-yl)-6,7-difluoroquinoline-3-carbonyl)-N,N-diethylpiperazine-1-carboxamide], the IC50 on ALDH1A1 enzyme was 0.5 to 1 µM; with MIA PaCa-2 cells it was 1 to 10 µM.

In the case of `CC1(C#N)CCN(c2c(C(=O)N3CCN(C(=O)N4CCCC4)CC3)cnc3cc(F)c(F)cc23)CC1` [Example 175, 1-(6,7-difluoro-3-(4-(pyrrolidine-1-carbonyl)piperazine-1-carbonyl)quinolin-4-yl)-4-methylpiperidine-4-carbonitrile], the IC50 on ALDH1A1 enzyme and in the test with MIA PaCa-2 cells was 1 to 10 µM in each case.

As for `CCS(=O)(=O)N1CCN(C(=O)c2cnc3cc(F)c(F)cc3c2N2CCC(C)(C#N)CC2)CC1` [Example 176, 1-(3-(4-(ethylsulfonyl)piperazine-1-carbonyl)-6,7-difluoroquinolin-4-yl)-4-methylpiperidine-4-carbonitrile], the half-inhibitory concentration (IC50) at ALDH1A1 enzyme is < 0.5 µM; with MIA PaCa-2 cells, 1 to 10 µM.

Regarding `CN(C)S(=O)(=O)N1CCN(C(=O)c2cnc3cc(F)c(F)cc3c2N2CCC(C)(C#N)CC2)CC1` [Example 177, 4-(4-(4-cyano-4-methylpiperidin-1-yl)-6,7-difluoroquinoline-3-carbonyl)-N,N-dimethylpiperazine-1-sulfonamide], the IC50 at ALDH1A1 enzyme and in the test with MIA PaCa-2 cells was < 0.5 µM throughout.

For the molecule `CC1(C#N)CCN(c2c(C(=O)N3CCN(S(=O)(=O)N4CCCC4)CC3)cnc3cc(F)c(F)cc23)CC1` [Example 178, 1-(6,7-difluoro-3-(4-(pyrrolidin-1-ylsulfonyl)piperazine-1-carbonyl)quinolin-4-yl)-4-methylpiperidine-4-carbonitrile], the concentration for half-maximal inhibition (IC50) at ALDH1A1 enzyme was 1 to 10 µM; in the test on MIA PaCa-2 cells it was > 10 µM.

On to `CN(C)C(=O)N1CCN(C(=O)c2cnc3ccc(F)cc3c2N2CCC3(CC2)OCCO3)CC1` [Example 179, 4-(6-fluoro-4-(1,4-dioxa-8-azaspiro[4.5]decan-8-yl)quinoline-3-carbonyl)-N,N-dimethylpiperazine-1-carboxamide], for which the IC50 is < 0.5 µM at ALDH1A1 enzyme and 0.5 to 1 µM in the test on MIA PaCa-2 cells.

Regarding `CN(C)C(=O)N1CCN(C(=O)c2cnc3c(F)cc(F)cc3c2N2CCC3(CC2)OCCO3)CC1` [Example 180, 4-(6,8-difluoro-4-(1,4-dioxa-8-azaspiro[4.5]decan-8-yl)quinoline-3-carbonyl)-N,N-dimethylpiperazine-1-carboxamide], the IC50 is < 0.5 µM on ALDH1A1 enzyme and 1 to 10 µM with MIA PaCa-2 cells.

In the case of `CN(C)C(=O)N1CCN(C(=O)c2cnc3cc(F)c(F)cc3c2N2CCC3(CC2)OCCO3)CC1` [Example 181, 4-(6,7-difluoro-4-(1,4-dioxa-8-azaspiro[4.5]decan-8-yl)quinoline-3-carbonyl)-N,N-dimethylpiperazine-1-carboxamide], the results for the half-maximal inhibitory concentration (IC50) on ALDH1A1 enzyme and with MIA PaCa-2 cells were < 0.5 µM and 1 to 10 µM, respectively.

In the case of `CN(C)C(=O)N1CCN(C(=O)c2cnc3c(F)cc(F)cc3c2N2CCC(C)(C#N)CC2)CC1` [Example 183, 4-(4-(4-cyano-4-methylpiperidin-1-yl)-6,8-difluoroquinoline-3-carbonyl)-N,N-dimethylpiperazine-1-carboxamide], the IC50 at ALDH1A1 enzyme was < 0.5 µM; in the test on MIA PaCa-2 cells it was 1 to 10 µM.

Regarding `CN(C)C(=O)N1CCN(C(=O)c2cnc3cc(F)c(F)cc3c2N2CCC(C)(C#N)CC2)CC1` [Example 184, 4-(4-(4-cyano-4-methylpiperidin-1-yl)-6,7-difluoroquinoline-3-carbonyl)-N,N-dimethylpiperazine-1-carboxamide], the concentration for half-maximal inhibition (IC50) was < 0.5 µM at ALDH1A1 enzyme and 1 to 10 µM in the test on MIA PaCa-2 cells.

Take `CS(=O)(=O)C1CCN(C(=O)c2cnc3ccc(F)cc3c2N2CCC3(CC2)OCCO3)CC1` [Example 185, (6-fluoro-4-(1,4-dioxa-8-azaspiro[4.5]decan-8-yl)quinolin-3-yl)(4-(methylsulfonyl)piperidin-1-yl)methanone]: the IC50 is < 0.5 µM on ALDH1A1 enzyme and 1 to 10 µM in the test with MIA PaCa-2 cells.

As for `CS(=O)(=O)C1CCN(C(=O)c2cnc3c(F)cc(F)cc3c2N2CCC3(CC2)OCCO3)CC1` [Example 186, (6,8-difluoro-4-(1,4-dioxa-8-azaspiro[4.5]decan-8-yl)quinolin-3-yl)(4-(methylsulfonyl)piperidin-1-yl)methanone], the IC50 is < 0.5 µM on ALDH1A1 enzyme and 1 to 10 µM in the test on MIA PaCa-2 cells.

Turning to `CS(=O)(=O)C1CCN(C(=O)c2cnc3cc(F)c(F)cc3c2N2CCC3(CC2)OCCO3)CC1` [Example 187, (6,7-difluoro-4-(1,4-dioxa-8-azaspiro[4.5]decan-8-yl)quinolin-3-yl)(4-(methylsulfonyl)piperidin-1-yl)methanone], the concentration for half-maximal inhibition (IC50) was < 0.5 µM at ALDH1A1 enzyme and 1 to 10 µM in the test on MIA PaCa-2 cells.

Regarding `CC1(C#N)CCN(c2c(C(=O)N3CCC(S(C)(=O)=O)CC3)cnc3c(F)cc(F)cc23)CC1` [Example 189, 1-(6,8-difluoro-3-(4-(methylsulfonyl)piperidine-1-carbonyl)quinolin-4-yl)-4-methylpiperidine-4-carbonitrile], the IC50 on ALDH1A1 enzyme is < 0.5 µM; with MIA PaCa-2 cells, 1 to 10 µM.

Consider `CC1(C#N)CCN(c2c(C(=O)N3CCC(S(C)(=O)=O)CC3)cnc3cc(F)c(F)cc23)CC1` [Example 190, 1-(6,7-difluoro-3-(4-(methylsulfonyl)piperidine-1-carbonyl)quinolin-4-yl)-4-methylpiperidine-4-carbonitrile], for which the values for the IC50 at ALDH1A1 enzyme and in the test with MIA PaCa-2 cells were < 0.5 µM and 1 to 10 µM, respectively.
